Reference: publication PMC6271703, “Absorbability, Mechanism and Structure-Property Relationship of Three Phenolic Acids from the Flowers of Trollius chinensis” (Molecules, 2014)
≈ marks a conversion by molar mass, not a printed value.

Legend:
[1] = Caco-2 cell monolayer transport experiment; format: in vitro ADME; conditions: human; for Papp A→B at 90 min, 100 μmol/L: incubation up to 90 min, n = 3
Method: To facilitate the cells’ differentiation and formation of a confluent monolayer, Caco-2 cells were seeded at a density of 1.0 × 10^5 cells/cm^2 on a 12-well Transwell insert filter. The inserts were fed with culture medium at 2 days intervals in the first week, and then at daily intervals for the AP side and 2 days intervals for the BL side until they were used for the transport experiment 21 days after seeding. The AP and BL sides contained 0.5 mL and 1.5 mL of culture medium, respectively. […] The cell inserts were used after the resistance reached above 600 Ω∙cm^2.
On day 21, transport study was initiated by careful removal of the culture medium from AP and BL sides. Caco-2 monolayers were rinsed twice with pre-warmed HBSS and were incubated by pre-warmed HBSS for 30 min at 37 °C. PA, GA and TS were dissolved in DMSO, and diluted to the concentration of 25, 50 and 100 μmol/L with HBSS. The final DMSO concentration was less than 1%. Test compounds were added to the AP side (0.5 mL) or BL side (1.5 mL) of the inserts, while the receiving chamber contained the corresponding volume of HBSS. […] At 30, 60, 90, 120, 150 and 180 min, 0.2 mL of solutions from BL side or AP side were collected, and replaced with an equal volume of HBSS. Samples were frozen immediately and stored below −20 °C before analysis. Upon completion of all permeation experiments, TEER values were measured to ensure that cell monolayer integrity and viability had not been adversely affected by experimental conditions.
(§1) The cell survival rate (%) was calculated using the equation survival rate= A/A0 × 100, wherein A was the average absorbance value of treatment group; A0 was the average absorbance value of the blank control group. The Papp was determined in this study by HPLC quantification of the compounds in the receiver chamber after transport across the Caco-2 monolayer. The calculation was described by the equation Papp = (dQ/dt) × (1/A) × (1/C0), wherein dQ/dt was the rate of appearance of the test compound on the receiver compartment (μmol/s); C0 was the initial test compound concentration on the donor compartment (μmol/mL); and A was the surface area of Caco-2 monolayer (cm^2).
The percentage transported (%) was calculated using the equation % Transported = QB/(CS × VD) × 100, wherein QB was the amount of compounds in the receiver compartment(μmol); CS was the donor concentration of test compounds (μmol/L); VD was the volume of the donor compartment (L). The transport rate (μmol/h/cm^2) was calculated using the equation transport rate = QB/(t × A), wherein QB was the amount of compounds in the receiver compartment(μmol); t was the incubating time (h); A was the surface area of Caco-2 monolayer (cm^2).

[2] = Caco-2 cell monolayer transport experiment; format: in vitro ADME; conditions: human; for Papp A→B at 90 min, 25 μmol/L / Papp B→A at 90 min, 25 μmol/L / Papp A→B at 90 min, 50 μmol/L / Papp B→A at 90 min, 50 μmol/L / Papp B→A at 90 min, 100 μmol/L / Papp A→B at 90 min / Papp B→A at 90 min: incubation up to 90 min; for Papp A→B at 90 min, 25 μmol/L / Papp B→A at 90 min, 25 μmol/L / Papp A→B at 90 min, 50 μmol/L / Papp B→A at 90 min, 50 μmol/L / Papp B→A at 90 min, 100 μmol/L: n = 3; for Papp A→B at 90 min / Papp B→A at 90 min: average of 25, 50 and 100 μmol/L; for Papp at 90 min: monitored for 90 min, read-out: bidirectional Papp level (AP to BL and BL to AP)
[3] = test system: influenza A; parameters: method as in ref [7] = [7]; 7. Wang R.F. The Constituents and Bioactivities of Jinlianhua and Pangdahai Doctoral Thesis Peking University Bejing, China 2003; conditions: antiviral, ref [7]; cited from earlier work
[4] = test system: Caco-2 cells; assay: MTT assay on Caco-2 cells; format: cell-based, human; conditions: for Survival Rate: 4 h, n = 4
Method: Caco-2 cells at logarithmic growth phase were seeded onto 96-well plates and incubated at 37 °C in culture hood. The culture medium was removed after cells formed a full layer, and each 100 μL of HBSS solution (negative control group) and drug-containing HBSS solution (three phenolic acids at the concentrations of 25, 50 and 100 μmol/L, respectively) was added to each well. When the plates were cultured for 4 h, HBSS solution was completely transferred out and each 100 μL of MTT solution (0.5 mg/mL) was added to each well. MTT solution was removed carefully after 4 hours of incubation at 37 °C, and each 150 μL of DMSO was added to each well, then culture vessels were agitated on an orbital shaker for 10 min and absorbance was read on a microplate reader at 570 nm.
as §1

[5] = test system: Para 3; parameters: method as in ref [6] = [6]; 6. Li Q.F. Feng S.Q. Li Y.L. Cen Y.Z. Yang Y.T. Wang L.Y. Study on the antibacterial and antiviral activity compositions of Trollius chinensis Bunge J. Zhejiang Univ. (Sci. Ed.) 2004 31 412 415; conditions: antiviral, ref [6]; cited from earlier work
[6] = test system: Staphylococcus aureus; parameters: method as in PMID 11849843; conditions: ref [4],[5]; cited from earlier work
[7] = test system: Pseudomonas aeruginosa; parameters: method as in PMID 11849843; conditions: ref [4],[5]; cited from earlier work
[8] = test system: Streptococcus pneumonia; parameters: method as in ref [7] = [7]; 7. Wang R.F. The Constituents and Bioactivities of Jinlianhua and Pangdahai Doctoral Thesis Peking University Bejing, China 2003; conditions: ref [7]; cited from earlier work

| Structure (SMILES) | Papp A→B at 90 min, 100 μmol/L [1] [×10⁻⁶ cm/s] | Papp A→B at 90 min, 25 μmol/L [2] [×10⁻⁶ cm/s] | Papp B→A at 90 min, 25 μmol/L [2] [×10⁻⁶ cm/s] | Papp A→B at 90 min, 50 μmol/L [2] [×10⁻⁶ cm/s] | Papp B→A at 90 min, 50 μmol/L [2] [×10⁻⁶ cm/s] | Papp B→A at 90 min, 100 μmol/L [2] [×10⁻⁶ cm/s] | Papp A→B at 90 min [2] [×10⁻⁶ cm/s] | Papp B→A at 90 min [2] [×10⁻⁶ cm/s] | Papp at 90 min [2] [×10⁻⁶ cm/s] | IC50 [3] [µg/mL] | Survival Rate ([4]; 25 μmol/L) [%] | Survival Rate ([4]; 50 μmol/L) [%] | Survival Rate ([4]; 100 μmol/L) [%] | IC50 [5] [µg/mL] | MIC [6] [µg/mL] | MIC [7] [µg/mL] | Survival rate of Caco-2 cells ([4]; at different concentrations (25, 50, 100 μmol/L)) | MIC [8] [µg/mL] | Papp at 180 min ([1]; standard markers added to the AP side, model validation, read-out: Papp of reference controls) [×10⁻⁶ cm/s] |
| --- | --- | --- | --- | --- | --- | --- | --- | --- | --- | --- | --- | --- | --- | --- | --- | --- | --- | --- | --- |
| COc1cc(C(=O)O)cc2c1OC(C)(C)CC2 [GA, 8-methoxy-2,2-dimethylchroman-6-carboxylic acid] | 17 ± 1.2 | 21.4 ± 2 | 22.1 ± 0.8 | 15.9 ± 0.2 | 20 ± 0.7 | 19.4 ± 1 | 18.1 ± 1.1 | 20.5 ± 0.8 | ~10 | 42.1 (≈ 178 µM) | 107.1 ± 5.7 | 118.9 ± 13.7 | 123.6 ± 6.2 |  |  |  |  |  |  |
| COc1cc(C(=O)O)cc(CC=C(C)C)c1O [PA, 4-hydroxy-3-methoxy-5-(3-methylbut-2-en-1-yl)benzoic acid] | 29.6 ± 1.1 | 31.7 ± 0.4 | 25.4 ± 2.2 | 28 ± 1.3 | 25.6 ± 1.9 | 25.9 ± 1.4 | 29.8 ± 1.3 | 25.6 ± 1.8 | ~10 |  | 118.8 ± 11.6 | 110.5 ± 3.8 | 124.5 ± 2.2 | 184.2 (≈ 780 µM) | 200 (≈ 846 µM) | 16 (≈ 67.7 µM) |  |  |  |
| CC(=O)O[C@H]1C(=O)[C@@]2(C)[C@H]([C@H](OC(=O)c3ccccc3)[C@]3(O)C[C@H](OC(=O)[C@H](O)[C@@H](NC(=O)c4ccccc4)c4ccccc4)C(C)=C1C3(C)C)[C@]1(OC(C)=O)CO[C@@H]1C[C@@H]2O [Paclitaxel, reference compound] |  |  |  |  |  |  |  |  |  |  | 67.3 ± 8.2 | 45.5 ± 6.7 | 37.4 ± 3.5 |  |  |  | below 70% |  |  |
| COc1cc(C(=O)O)cc(CC=C(C)C)c1O[C@@H]1O[C@H](CO)[C@@H](O)[C@H](O)[C@H]1O [TS, 3-methoxy-5-(3-methylbut-2-en-1-yl)-4-(((2S,3R,4S,5S,6R)-3,4,5-trihydroxy-6-(hydroxymethyl)tetrahydro-2H-pyran-2-yl)oxy)benzoic acid] | 7.7 ± 0.9 | 8.6 ± 1.6 | 8.6 ± 0.4 | 10.6 ± 0.3 | 10.8 ± 0.6 | 8 ± 0.3 | 8.9 ± 0.9 | 9.1 ± 0.4 | ~10 |  | 98.9 ± 4.3 | 107.3 ± 7.0 | 118.2 ± 8.1 |  |  |  |  | 128 (≈ 321 µM) |  |
| CC(C)NCC(O)COc1cccc2ccccc12 (stereo not shown) [propranolol, reference compound] |  |  |  |  |  |  |  |  |  |  |  |  |  |  |  |  |  |  | 12.4 |
